Assay results reported in patent publication US11795177B2, “Substituted quinoline analogs as aldehyde dehydrogenase 1A1 (ALDH1A1) inhibitors” (THE UNITED STATES OF AMERICA, AS REPRESENTED BY THE …, priority 2017, dated 2023).

How the values were obtained:
MIA PaCa-2 cells = assay: MIA PaCa2 cell-based assay (1,536-well high-content imaging ALDEFLUOR assay); set-up: species or system human; conditions: Homo sapiens, 0.5 h, ALDEFLUOR BAAA substrate 500 nM, 30 minutes
Summary of the method: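 High-content ALDEFLUOR imaging readout: BAA-retaining cells in FITC channel scored against Hoechst-counted nuclei. Before imaging, MIA PaCa-2 cells seeded at 1,000 per well received final 500 nM BAAA and 0.5 nM Hoechst with compounds in 16-point series (1.4 nM to 47.8 μM), 30 min, 37° C.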

ALDH1A1 enzyme = target: T1, ALDH1A1 enzyme (Homo sapiens, UniProt P00352); assay: ALDH1A1 enzymatic assay (in vitro); type: biochemical; conditions: ALDH1A1 enzyme 20 nM, NAD+ 1 mM, propionaldehyde 80 μM; read-out: ALDH1A1 IC50
T1 sequence (P00352 1-501): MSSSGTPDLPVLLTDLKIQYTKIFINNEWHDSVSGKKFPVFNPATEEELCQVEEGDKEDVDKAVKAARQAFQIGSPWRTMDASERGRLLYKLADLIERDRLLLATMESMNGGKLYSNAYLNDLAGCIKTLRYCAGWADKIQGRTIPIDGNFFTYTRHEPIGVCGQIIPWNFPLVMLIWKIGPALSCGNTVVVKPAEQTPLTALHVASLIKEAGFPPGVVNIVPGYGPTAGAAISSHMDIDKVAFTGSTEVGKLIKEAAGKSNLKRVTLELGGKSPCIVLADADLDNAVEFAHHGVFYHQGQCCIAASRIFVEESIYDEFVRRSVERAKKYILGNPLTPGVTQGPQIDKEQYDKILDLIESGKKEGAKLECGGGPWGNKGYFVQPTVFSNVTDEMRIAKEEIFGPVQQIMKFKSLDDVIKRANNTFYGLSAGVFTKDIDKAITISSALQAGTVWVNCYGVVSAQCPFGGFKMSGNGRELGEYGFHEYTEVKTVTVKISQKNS
Summary of the method: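 ALDH1A1 (20 nM final) in 100 mM HEPES pH 7.5, 0.01% Tween 20 was preincubated 15 min at RT with compound (968 pM–57.2 μM final), then started with 1 mM NAD+ and 80 μM propionaldehyde. NADH fluorescence (ex 340/em 450 nm) followed kinetically for 10 min; change normalized to no-inhibitor and no-enzyme controls for percent inhibition and curve fitting.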

Row | IC50 (MIA PaCa-2 cells) [nM] | IC50 (ALDH1A1 enzyme) [nM] | SMILES
1 | < 500 | < 500 | CNC(=O)C1CCN(C(=O)c2cnc3ccc(F)cc3c2N2CCC(C#N)(c3ccccc3)CC2)CC1 [Cpd. 327, 1-(4-(4-cyano-4-phenylpiperidin-1-yl)-6-fluoroquinoline-3-carbonyl)-N-methylpiperidine-4-carboxamide]
2 | < 500 | < 500 | N#CC1(c2ccccc2)CCN(c2c(C(=O)N3CCC(O)(CO)CC3)cnc3ccc(F)cc23)CC1 [Cpd. 351, 1-(6-fluoro-3-(4-hydroxy-4-(hydroxymethyl)piperidine-1-carbonyl)quinolin-4-yl)-4-phenylpiperidine-4-carbonitrile]
3 | > 10000 | > 10000 | CC1(C#N)CCN(c2c(C(=O)N3CCN(C(=O)C4CC4)C(C)(C)C3)cnc3ccc(F)cc23)CC1 [Example 231, 1-(3-(4-(cyclopropanecarbonyl)-3,3-dimethylpiperazine-1-carbonyl)-6-fluoroquinolin-4-yl)-4-methylpiperidine-4-carbonitrile]
4 | 1000 to 10000 | < 500 | COc1ccc2c(N3CCC(C)(C#N)CC3)c(C(=O)N3CCN(C(=O)C4CC4)CC3)cnc2c1 [Example 101, 1-(3-(4-(cyclopropanecarbonyl)piperazine-1-carbonyl)-7-methoxyquinolin-4-yl)-4-methylpiperidine-4-carbonitrile]
5 | > 10000 | 500 to 1000 | COc1ccc2ncc(C(=O)N3CCC(F)(F)CC3)c(N3CCC4(CC3)OCCO4)c2c1 [Example 32, (4,4-difluoropiperidin-1-yl)(6-methoxy-4-(1,4-dioxa-8-azaspiro[4.5]decan-8-yl)quinolin-3-yl)methanone]
6 | 1000 to 10000 | < 500 | O=C(c1cnc2c(F)c(F)c(F)cc2c1N1CCC2(CC1)OCCO2)N1CCN(C(=O)C2CC2)CC1 [Example 124, (4-(cyclopropanecarbonyl)piperazin-1-yl)(6,7,8-trifluoro-4-(1,4-dioxa-8-azaspiro[4.5]decan-8-yl)quinolin-3-yl)methanone]
7 | 1000 to 10000 | < 500 | CCN(CC)C(=O)N1CCN(C(=O)c2cnc3ccc(F)cc3c2N2CCC3(CC2)OCCO3)CC1 [Example 149, N,N-diethyl-4-(6-fluoro-4-(1,4-dioxa-8-azaspiro[4.5]decan-8-yl)quinoline-3-carbonyl)piperazine-1-carboxamide]
8 | 1000 to 10000 | < 500 | CN(C)C(=O)N1CCN(C(=O)c2cnc3cc(F)c(F)cc3c2N2CCC3(CC2)OCCO3)CC1 [Example 181, 4-(6,7-difluoro-4-(1,4-dioxa-8-azaspiro[4.5]decan-8-yl)quinoline-3-carbonyl)-N,N-dimethylpiperazine-1-carboxamide]
9 | > 10000 | < 500 | O=C(c1cnc2ccc(F)cc2c1N1CCC2(CC1)OCCO2)N1CCC(F)(F)CC1 [Example 50, (4,4-difluoropiperidin-1-yl)(6-fluoro-4-(1,4-dioxa-8-azaspiro[4.5]decan-8-yl)quinolin-3-yl)methanone]
10 | < 500 | < 500 | CC(=O)C1(c2ccccc2)CCN(c2c(C(=O)N3CCC(S(C)(=O)=O)CC3)cnc3ccc(F)cc23)CC1 [Example 273, 1-(1-(6-fluoro-3-(4-(methylsulfonyl)piperidine-1-carbonyl)quinolin-4-yl)-4-phenylpiperidin-4-yl)ethanone]
11 | 1000 to 10000 | < 500 | CS(=O)(=O)C1CCN(C(=O)c2cnc3c(F)cc(F)cc3c2N2CCC3(CC2)OCCO3)CC1 [Example 186, (6,8-difluoro-4-(1,4-dioxa-8-azaspiro[4.5]decan-8-yl)quinolin-3-yl)(4-(methylsulfonyl)piperidin-1-yl)methanone]
12 | 1000 to 10000 | < 500 | CCOC(=O)N1CCN(C(=O)c2cnc3cc(OC)c(OC)cc3c2N2CCC(C)(C#N)CC2)CC1 [Example 116, Ethyl 4-(4-(4-cyano-4-methylpiperidin-1-yl)-6,7-dimethoxyquinoline-3-carbonyl)piperazine-1-carboxylate]
13 | 1000 to 10000 | < 500 | O=C(c1cnc2ccc(F)cc2c1N1CCC2(CCCC2=O)CC1)N1CCN(C(=O)C2CC2)CC1 [Example 250, 8-(3-(4-(cyclopropanecarbonyl)piperazine-1-carbonyl)-6-fluoroquinolin-4-yl)-8-azaspiro[4.5]decan-1-one]

More lines, now with the values behind:

Row | SMILES | IC50 (MIA PaCa-2 cells) [nM] | IC50 (ALDH1A1 enzyme) [nM]
14 | CCS(=O)(=O)N1CCN(C(=O)c2cnc3c(F)cc(F)cc3c2N2CCC(C)(C#N)CC2)CC1 [Example 166, 1-(3-(4-(ethylsulfonyl)piperazine-1-carbonyl)-6,8-difluoroquinolin-4-yl)-4-methylpiperidine-4-carbonitrile] | 1000 to 10000 | < 500
15 | CS(=O)(=O)C1CCN(C(=O)c2cnc3ccsc3c2N2CCC(C#N)(c3ccccc3)CC2)CC1 [Example 293, 1-(6-(4-(methylsulfonyl)piperidine-1-carbonyl)thieno[3,2-b]pyridin-7-yl)-4-phenylpiperidine-4-carbonitrile] | < 500 | < 500
16 | CCNC(=O)N1CCN(C(=O)c2cnc3cc(F)c(F)cc3c2N2CCC3(CC2)OCCO3)CC1 [Example 142, 4-(6,7-difluoro-4-(1,4-dioxa-8-azaspiro[4.5]decan-8-yl)quinoline-3-carbonyl)-N-ethylpiperazine-1-carboxamide] | 1000 to 10000 | < 500
17 | CC1(C#N)CCN(c2c(C(=O)N3CCN(C(=O)C4CC4)C4(CC4)C3)cnc3ccc(F)cc23)CC1 [Example 232, 1-(3-(4-(cyclopropanecarbonyl)-4,7-diazaspiro[2.5]octane-7-carbonyl)-6-fluoroquinolin-4-yl)-4-methylpiperidine-4-carbonitrile] | 1000 to 10000 | < 500
18 | N#CC1(c2ccccc2)CCN(c2c(C(=O)N3CC4(CC(O)C4)C3)cnc3ccc(F)cc23)CC1 [Cpd. 329, 1-(6-fluoro-3-(6-hydroxy-2-azaspiro[3.3]heptane-2-carbonyl)quinolin-4-yl)-4-phenylpiperidine-4-carbonitrile] | < 500 | < 500
19 | COc1cc2ncc(C(=O)N3CCN(C(=O)C4CC4)CC3)c(N3CCC(C)(C#N)CC3)c2cc1OC [Example 109, 1-(3-(4-(cyclopropanecarbonyl)piperazine-1-carbonyl)-6,7-dimethoxyquinolin-4-yl)-4-methylpiperidine-4-carbonitrile] | 1000 to 10000 | < 500
20 | CC(=O)N1CCN(C(=O)c2cnc3ccccc3c2N2CCC(C)(C#N)CC2)CC1 [Example 96, 1-(3-(4-acetylpiperazine-1-carbonyl)quinolin-4-yl)-4-methylpiperidine-4-carbonitrile] | > 10000 | 1000 to 10000
21 | CC1(C#N)CCN(c2c(C(=O)N3CCN(C(=O)N4CCCC4)CC3)cnc3c(F)cc(F)cc23)CC1 [Example 165, 1-(6,8-difluoro-3-(4-(pyrrolidine-1-carbonyl)piperazine-1-carbonyl)quinolin-4-yl)-4-methylpiperidine-4-carbonitrile] | 1000 to 10000 | 1000 to 10000
22 | CS(=O)(=O)N1CCN(C(=O)c2cnc3ccc(F)cc3c2N2CCC(CC#N)CC2)CC1 [Example 214, 2-(1-(6-fluoro-3-(4-(methylsulfonyl)piperazine-1-carbonyl)quinolin-4-yl)piperidin-4-yl)acetonitrile] | > 10000 | 1000 to 10000
23 | COc1ccc2c(N3CCC(C)(C#N)CC3)c(C(=O)N3CCN(C(C)=O)CC3)cnc2c1 [Example 104, 1-(3-(4-acetylpiperazine-1-carbonyl)-7-methoxyquinolin-4-yl)-4-methylpiperidine-4-carbonitrile] | > 10000 | < 500
24 | CC1(C#N)CCN(c2c(C(=O)N3CCC(C(=O)C4CC4)CC3)cnc3c(F)cc(F)cc23)CC1 [Example 195, 1-(3-(4-(cyclopropanecarbonyl)piperidine-1-carbonyl)-6,8-difluoroquinolin-4-yl)-4-methylpiperidine-4-carbonitrile] | 1000 to 10000 | < 500
25 | C[C@@H]1CN(S(C)(=O)=O)CCN1C(=O)c1cnc2ccc(F)cc2c1N1CCC(C)(C#N)CC1 [Example 241, (R)-1-(6-fluoro-3-(2-methyl-4-(methylsulfonyl)piperazine-1-carbonyl)quinolin-4-yl)-4-methylpiperidine-4-carbonitrile] | > 10000 | 1000 to 10000
26 | CC1(C#N)CCN(c2c(C(=O)N3CCN(C(=O)N4CCCC4)CC3)cnc3ccc(F)cc23)CC1 [Example 155, 1-(6-fluoro-3-(4-(pyrrolidine-1-carbonyl)piperazine-1-carbonyl)quinolin-4-yl)-4-methylpiperidine-4-carbonitrile] | > 10000 | 1000 to 10000
